In patent US20230241159A1, “Peptide Having Mesenchymal Stem Cell Mobilizing Activity” (StemRIM Inc., priority 2020, published 2023):

Experiments:
[1] = tested on: inflammatory bowel disease (IBD) model mice; test: Dextran sulfate sodium (DSS)-induced inflammatory bowel disease (IBD) model mice; format: in vivo, BALB/c mice
Protocol: Dextran sodium sulfate (DSS) (molecular weight 36,000 to 50,000, manufactured by MP Biomedicals, Product No. 160110) was dissolved in purified water to prepare a 2.5% (w/v) DSS aqueous solution. In addition, the peptide 1r10 (TFA salt) consisting of the amino acid sequence of SEQ ID NO: 1 was chemically synthesized by the solid phase method and used as the test substance.
BALB/c mice (9 weeks old, male) were allowed to drink the 2.5% DSS aqueous solution freely for 7 days to induce colitis. After that, the drinking was changed from DSS to tap water, and the large intestine was collected 3 days later (10 days after the start of drinking the DSS aqueous solution).
The IBD model mice prepared as described above were divided into the peptide 1r10 administration group (n=8) and the control group (n=8). Peptide administration was carried out by injecting into the tail vein, the peptide 1r10 solution adjusted to a concentration of 0.5 mg/mL using physiological saline as a solvent at an amount of 10 mL/kg on Days 1, 4, 7, 8 and 9 after the start of drinking the DSS aqueous solution (peptide dose of 5 mg/kg). The control group was injected with physiological saline solution at a dose of 10 mL/kg into the tail vein on Days 1, 4, 7, 8 and 9 after the start of drinking the DSS aqueous solution.
For 10 days from the start of drinking the DSS aqueous solution, the mice were weighed and observed for the symptoms (stool condition and bleeding) every day except Saturdays, Sundays, and holidays, and the degree of symptoms was evaluated by calculating the DAI (disease activity index) score. The DAI score was calculated by scoring the weight loss rate, stool condition, and stool bleeding as shown in the table below, and summing the scores of these three items. The scoring criteria were partly based on the method of Li et al. (PLoS One. 2015 Dec. 7; 10 (12): e0144101).
In addition, the length of the large intestine (from the colon to the rectum) collected 10 days after the start of drinking DSS was measured using a digital caliper.

[2] = tested on: cerebral infarction model rat; test: Cerebral infarction model rat (right MCA occlusion), cerebral infarction volume ratio; format: in vivo, Crl:CD (SD) rats; settings: 2 mg/kg tail vein at 105 minutes and 24 hours after right MCA occlusion; 48 hours after occlusion; control 34.1±1.1%; p<0.01
Excerpt: Crl:CD (SD) rats (7 weeks old, male) were obtained from Charles River Laboratories, Japan, and after 6 days of acclimation, they were divided into the control group (n=8) and the peptide-administered group (n=8). On the following day of grouping, the rats were fixed in the supine position under 2% isoflurane inhalation anesthesia (anesthesia background: laughing gas:oxygen=7:3). To regulate body temperature during surgery, a thermometer probe connected to a digital thermometer was inserted into the rectum, and changes in the rectal temperature before and after surgery were monitored. […]
Forty-eight hours after the right MCA occlusion, the animals were decapitated under anesthesia with sodium pentobarbital (50 mg/kg, intraperitoneal administration), and the entire brain was excised to prepare brain sections with a thickness of 2 mm. […] The resulting photographs were subjected to image analysis to obtain actual measurements of the cerebral infarction area and cross-sectional area of the brain, and the cerebral infarct volume and the total brain volume from 4 mm anterior to bregma to 6 mm posterior to bregma were calculated using the calculation formula below. In addition, the cerebral infarction volume ratio was calculated from the cerebral infarction volume and the total volume of the brain (cerebral infarction volume ratio (%)=cerebral infarction volume/total brain volume x 1001. […]

[3] = tested on: atopic dermatitis model mice; test: MC903-induced atopic dermatitis model mice; format: in vivo, C57BL/6 mice
Excerpt: MC903 (generic name: Calcipotriol) was used to induce atopic dermatitis (hereinafter, also referred to as “AD”) in mice. In addition, the peptide 1r10 (TFA salt) described in Reference Example 1 was used as the test substance.
C57BL/6 mice (C57BL/6 JJcl, 7-8 weeks old, male, microbial grade SPF) were obtained from Japan Claire Co., Ltd., acclimated in the animal breeding room for 5 days or more, and then subjected to the following experiments. An ethanol-adjusted MC903 solution was applied to the skin of the auricle of the mice at a dose of 2.25 nmol MC903/ear/once/day five times a week for 2 weeks (ten times in total) to induce atopic dermatitis (AD). This MC903-induced AD model is a model in which AD-like pathology can be reproduced in a short period of time (1-2 weeks) by artificially inducing the secretion of TSLP from epithelial cells, which is actually seen in AD patients, thereby eliciting a series of type 2 immune response cascades (Li M et al., Proc Natl Acad Sci USA. 2006; 103:11736-41.).
They were then divided into the control group and the peptide administration group (n=7 in each group), while the groups were equalized based on the auricle thickness in consideration of the difference in the severity of inflammation between individuals. For peptide administration, the solution of peptide 1r10 adjusted to 0.3 mg/mL with physiological saline was injected into the tail vein at a volume of 5 mL/kg ([…]) twice in total, once on the grouping day (Day 15) and once during the following 4 days (Day 16 to Day 19). For the control group a solution of bovine serum albumin (BSA) adjusted to 0.3 mg/mL with physiological saline was injected into the tail vein at a volume of 5 mL/kg (BSA dose of 1.5 mg/kg) twice in total, once on the grouping day (Day 15) and once during the following 4 days (Day 16 to Day 19).
During the peptide administration period (Day 15 to Day 19), ear swellings were measured daily to determine edema. Scaling, which is the main symptom of AD, was determined by photography (three times a week) using a digital camera (E-Ml II; Olympus) from a fixed base at a height of 13-14 cm from the auricle.
On the 4th day (Day 19) after the start of peptide administration, mice were placed under the influence of isoflurane anesthesia and euthanized with cervical spine dislocation. The skin at auricular inflammation site and its surroundings was quickly excised and collected while on ice to prevent protein denaturation of the sample. After removing excess hair and skin with tweezers, the collected auricular skin was immersed in 10% formalin and fixed at 4° C. overnight while shaking on ice using a shaker. After fixation, the skin was thoroughly washed with phosphate buffered saline (PBS) and trimmed, and then a paraffin block was made using an automatic embedding device (Excelsior ES; Thermo Scientific) with attention to the tissue polarity in the dorsoventral axis/left-right axis specific to the skin). Then, it was sliced (5 μm thick) with a rotary microtome (HM 325; Thermo Scientific), fixed on a slide glass, and subjected to various staining. As pathological analysis, skin thickness and infiltration of immune cells were evaluated by histochemical staining and fluorescent immunostaining, respectively.
To quantitatively evaluate the healing condition of the site of inflammation, hematoxylin-eosin (HE) staining of the paraffin thin sections (5 μm thick) of skin tissue generated as described above was performed to measure the dermal thickness. Specifically, three sections were prepared for each individual, and each section was photographed with a microscope (Keyence BZ-X710) at one site each of the center of inflammation, head side, and tail side (that is, a total of 9 sites were photographed per individual). […]

mesenchymal stem cells = test: Solid-phase culture of peripheral blood after administration of HMGB1 peptide 1-44 (earlier experiments of the inventors); format: in vivo
Excerpt: In addition, the colonies obtained as a result of culturing, on a solid phase, peripheral blood after administration of a peptide consisting of amino acid residues 1-44 of the human HMGB1 protein (hereinafter, HMGB1 peptide 1-44), which has an activity of mobilizing mesenchymal stem cells into peripheral blood, have been confirmed to have adherability to solid phase and self-renewal ability, and to be PDGFRα positive. They have also been confirmed to have a gene expression profile characteristic to mesenchymal stem cells, based on the results of clustering the transcriptome analysis data and performing gene ontology analysis.

[4] = 5 mg/kg tail vein, 8 to 10 days after the start of drinking DSS, versus saline control

Substance	body weight 10 days after the start of drinking the DSS aqueous solution ([1]; 5 mg/kg tail vein on Days 1, 4, 7, 8 and 9, Day 10)	changes in mouse body weight during the test period ([1]; 5 mg/kg tail vein on Days 1, 4, 7, 8 and 9 after start of drinking DSS, versus saline control)	DAI (disease activity index) score [1, 4]	stool score (sum of stool condition score and bleeding score) [1, 4]	colon length (length of the large intestine) ([1]; 5 mg/kg tail vein, ten days after the start of drinking DSS, versus saline control)	cerebral infarction volume ratio (mean±standard error) [2] [%]	dermis thickness ([3]; 1.5 mg/kg tail vein twice, 4th day after start of administration (Day 19), HE staining, versus control)	scaling in the auricle ([3]; 1.5 mg/kg tail vein twice, 4 days after start of peptide administration, versus BSA control)	number of CD45-positive cells (infiltration of immune cells) in auricular skin sections ([3]; 1.5 mg/kg tail vein twice, Day 19, high power field 400×, versus control)	auricular thickness (edema) ([3]; 1.5 mg/kg tail vein twice, peptide administration period Day 15 to Day 19, versus BSA control)	changes in mouse body weight during the period of the study ([3]; Day 15 to Day 19, between peptide and control groups, p>0.05, repeated one-way ANOVA)	dermis thickness ([3]; dose of 0.5 mg/kg, versus control (data not shown))	number of colonies obtained by solid-phase culture of peripheral blood, versus physiological saline (mesenchymal stem cells)
1r10: artificial sequence peptide consisting of the amino acid sequence of SEQ ID NO: 1 (30 amino acids) (IMWLCQYFFQCHKCAVKKKTWKEKKDRRHP) [Peptide 1r10]	showed a tendency to recover body weight	the degree of decrease was slower in the peptide-administered group than in the control group	lower in the peptide-administered group than in the control group	lower in the peptide-administered group than in the control group	longer than that of the control group	27.2±1.2	statistically significant decrease in dermis thickness	reduction of scaling in the auricle was observed	statistically significant decrease in the number of CD45-positive cells	statistically significant reduction in auricular thickness	not significantly different between the groups	statistically significant decrease in dermis thickness	–
HMGB1 peptide 1-44: peptide consisting of amino acid residues 1-44 of the human HMGB1 protein (MGKGDPKKPRGKMSSYAFFVQTCREEHKKKHPDASVNFSEFSKK; UniProt P09429 1-44, looked up, fragment)	–	–	–	–	–	–	–	–	–	–	–	–	larger in the peripheral blood after administration of HMGB1 peptide 1-44 than in the peripheral blood after administration of physiological saline
